Values after ≈ are worked out from the molar mass of the structure shown. Numbered stars: 1 amine (or outer) side, 2 acyl side, 3 side chain; on linkers, the order of the positions; unused ones are H or OH. Bridge positions count the residues as written; N and C are the ends. Square brackets hold non-standard residues; d marks the D form. Peptide text beside a SMILES is read from it. * marks the point of attachment. X7 = C[C@@H](Oc1ccc([C@H](N[*:1])C(=O)[*:2])cc1)[C@](O)(/C=C/C(=O)[*:3])CNCCCCCCNC(=O)OC(C)(C)C; X6 = C[C@@H](Oc1ccc([C@H](N[*:1])C(=O)[*:2])cc1)[C@](O)(/C=C/C(=O)[*:3])CNCCCNC(=O)OC(C)(C)C; X4 = CCCCOC[C@@](O)(/C=C/C(=O)[*:3])[C@@H](C)Oc1ccc([C@H](N[*:1])C(=O)[*:2])cc1; X5 = C[C@@H](Oc1ccc([C@H](N[*:1])C(=O)[*:2])cc1)[C@](O)(/C=C/C(=O)[*:3])CO; Pentanoyl(2R-Me,3R-OH,4-Me) = CC(C)[C@@H](O)[C@@H](C)C(=O)*; d(aIle) = CC[C@H](C)[C@@H](N)C(=O)O; d(aThr) = C[C@@H](O)[C@@H](N)C(=O)O; NMeF = CN[C@@H](Cc1ccccc1)C(=O)O

The test system of test [1] is Sal-resistant mutants. Put plainly: Cross-resistance of Sal-resistant mutants to other RNAP inhibitors. The class given is cell-based. To be noted: disclosed herein.
Test [2] deals with Enterobacter cloacae ATCC13047. Kind of test: Antibacterial activity, broth microdilution. As to conditions: Enterobacter cloacae, ATCC13047; minimal concentration resulting in ≧50% inhibition of bacterial growth; read-out: MIC50 Enterobacter cloacae ATCC 13047. The class given is cell-based. The text has this: (§1) Antibacterial activity was quantified using broth microdilution [Clinical and Laboratory Standards Institute (CLSI/NCCLS), Methods for Dilution Antimicrobial Susceptibility Tests for Bacteria That Grow Aerobically; Approved Standard, Eighth Edition. CLIS Document M07-A8 (CLIS, Wayne Pa.), 2009]. Assays with Enterobacter cloacae ATCC13047, Pseudomonas aeruginosa ATCC10145, and Escherichia coli D21f2to1C, employed a starting cell density of 2-5×10^5 cfu/ml, Mueller Hinton II cation adjusted broth (BD Biosciences, Inc.), and an air atmosphere. Assays with Haemophilus influenzae ATCC49247 and Neisseria gonorrhoeae ATCC19424 employed a starting cell density of 2-5×10^5 cfu/ml, Haemophilus Test Medium broth (Barry et al., 1993) and a 5% CO2/95% air atmosphere. MIC50 was defined as the minimal concentration resulting in ≧50% inhibition of bacterial growth.
(Broth dilution looks for growth in wells or tubes with falling amounts of substance.)

Test [3] deals with Escherichia coli D21f2tolC. Put plainly: Antibacterial activity, broth microdilution. The class given is cell-based. As to conditions: Escherichia coli, D21F2TOLC, read-out: MIC50 Escherichia coli D21f2tolC.
Description: as §1

Test [4] relates to Sal-resistant mutants. To be noted: Ebright et al., WO/2012/129173; cited from earlier work.

Turning to `CNC(=O)[C@@H](C)[C@H]1C(=O)/C(=C(O)/C=C/C(C)=C/[C@@H](C)[C@H]2O[C@@]3(C)O[C@H](C=C[C@@]34CO4)[C@@H]2C)C(=O)N1[C@@H]1CC[C@H](O)[C@H](C)O1` [streptolydigin], the “cross-resistance of Sal-resistant mutants with the compound” value (from here on “cross-resistance … with the compound”) in the test with Sal-resistant mutants [1] is recorded as “do not exhibit cross-resistance”.
As to `CC[C@H](C)[C@H]1NC(=O)[C@@H](NC(=O)[C@H](C)[C@H](O)C(C)C)[C@@H](C)OC(=O)[C@@H]2COC(=O)CNC(=O)/C=C/[C@](O)(CO)[C@@H](C)Oc3ccc(cc3)[C@H](NC1=O)C(=O)N(C)[C@@H](Cc1ccccc1)C(=O)N[C@H]([C@@H](C)O)C(=O)N2` [Sal-OH (4), Sal-OH] ({Pentanoyl(2R-Me,3R-OH,4-Me)}-T[d(aIle)][X5][NMeF][d(aThr)]S; ester 1-C; linker 3-6 via G), the MIC50 – broadly, an inhibitory concentration at the 50% level, which refers to growth in some studies and to a panel of isolates in others – in test [2] came out at 25 µg/mL (≈ 24.1 µM); in test [3], 0.78 µg/mL (≈ 0.751 µM).
Turning to myxopyronin, the “cross-resistance … with the compound” value in the test with Sal-resistant mutants [1] is “do not exhibit cross-resistance”.
Take `CC[C@H](C)[C@H]1NC(=O)[C@@H](NC(=O)[C@H](C)[C@H](O)C(C)C)[C@@H](C)OC(=O)[C@@H]2COC(=O)CNC(=O)/C=C/[C@](O)(CNCCCCCCNC(=O)OC(C)(C)C)[C@@H](C)Oc3ccc(cc3)[C@H](NC1=O)C(=O)N(C)[C@@H](Cc1ccccc1)C(=O)N[C@H]([C@@H](C)O)C(=O)N2` [Sal-NH(CH2)6NHBoc (9), Sal-NH(CH2)6NHBoc] ({Pentanoyl(2R-Me,3R-OH,4-Me)}-T[d(aIle)][X7][NMeF][d(aThr)]S; ester 1-C; linker 3-6 via G): the MIC50 in test [2] came to 25 µg/mL (≈ 20.2 µM); in test [3], 0.78 µg/mL (≈ 0.631 µM).
Regarding lipiarmycin, in the test with Sal-resistant mutants [1], the “cross-resistance … with the compound” value is “do not exhibit cross-resistance”.
Turning to `ONC(=Nc1ccccc1)c1cccc(C(F)(F)F)c1` [CBR703], in the test with Sal-resistant mutants [4], the “cross-resistance of Sal-resistant mutants to the compound” value is given as “not cross-resistant”.
For `CC[C@H](C)[C@H]1NC(=O)[C@@H](NC(=O)[C@H](C)[C@H](O)C(C)C)[C@@H](C)OC(=O)[C@@H]2COC(=O)CNC(=O)/C=C/[C@](O)(CNCCCNC(=O)OC(C)(C)C)[C@@H](C)Oc3ccc(cc3)[C@H](NC1=O)C(=O)N(C)[C@@H](Cc1ccccc1)C(=O)N[C@H]([C@@H](C)O)C(=O)N2` [Sal-NH(CH2)3NHBoc (7), Sal-NH(CH2)3NHBoc] ({Pentanoyl(2R-Me,3R-OH,4-Me)}-T[d(aIle)][X6][NMeF][d(aThr)]S; ester 1-C; linker 3-6 via G), the MIC50 in test [2] is 100 µg/mL (≈ 83.7 µM); in test [3] it was 1.56 µg/mL (≈ 1.31 µM).
The like results for `CCCCOC[C@@]1(O)/C=C/C(=O)NCC(=O)OC[C@@H]2NC(=O)[C@@H]([C@@H](C)O)NC(=O)[C@H](Cc3ccccc3)N(C)C(=O)[C@@H](NC(=O)[C@@H]([C@@H](C)CC)NC(=O)[C@@H](NC(=O)[C@H](C)[C@H](O)C(C)C)[C@@H](C)OC2=O)c2ccc(cc2)O[C@@H]1C` [Sal-OBu A (5A), Sal-OBu A] ({Pentanoyl(2R-Me,3R-OH,4-Me)}-T[d(aIle)][X4][NMeF][d(aThr)]S; ester 1-C; linker 3-6 via G) were, in that order, 12.5 µg/mL (≈ 11.4 µM) and 1.56 µg/mL (≈ 1.43 µM).

The values are drawn from patent US9809626B2, “Antibacterial agents: salinamide derivatives” (priority 2012, dated 2017).
